These results are taken from patent US20140288188A1, “Process for Stabilizing Bacterial Content of Aqueous Ground Natural Calcium Carbonate and/or Precipitated Calcium Carbonate and/or Dolomite and/or Surface-Reacted Calcium Carbonate-Comprising Mineral Preparations” (priority 2011, published 2014).

Experiment [1] concerns rGDA/IT bacteria culture (GDA/CIT/MIT-resistant). Format: cell-based, Pseudomonas. Conditions: no BM1, GNCCS, one inoculation. The method, then:
(§1) All quoted bacterial counts (Total Viable Count (TVC) values are in cfu/ml) in the Tables herebelow are determined after 48 hours following plate-out and in accordance with the counting method described in “Bestimmung von aeroben mesophilen Keimen”, Schweizerisches Lebensmittelbuch, chapter 56, section 7.01, edition of 1985, revised version of 1988.
BM1 and ethylene diamine (hereafter “EDA”) were introduced into 50 g samples of each of the slurries indicated in Table 1 in the listed amounts (quoted in ppm based on the weight of the aqueous phase in the slurry). The samples were then stored at 30° C. for 72 hours. References were prepared according to the same protocol but in absence of EDA and in absence of EDA and BM1.
The slurry samples were then inoculated with 1 ml of a mixture of rGDA/IT bacteria culture. Each of the samples was incubated at 30° C. for 24 hours. Thereafter, a 1:10 dilution in phosphate buffered saline (PBS) was plated on plate count agar (PCA). These plates were incubated at 30° C. and analysed after 48 hours.
The biocide-resistant calcium carbonate slurry culture rGDA/IT is GDA/CIT/MIT-resistant and was obtained from product storage tanks located at white mineral dispersion (WMD) manufacturing plants that used the related biocide to preserve the products. […]
BM1 and a diamine selected from 1,3-bis(aminomethyl)cyclohexane (hereinafter “AMC”), 1,3-bis(aminomethyl)benzene (hereinafter “AMB”), 1,7-diaminoheptane (hereinafter “DAH”), and 1,8-diamionoocatane (hereinafter “DAO”) were introduced into 50 g samples of each of the slurries indicated in Table 4 in the listed amounts (quoted in ppm based on the weight of the aqueous phase in the slurry). The samples were then stored at 30° C. for 72 hours. References were prepared according to the same protocol but in absence of the respective diamine used and in the absence of the respective diamine and BM1. […]

The test system of experiment [2] is rOPP bacteria culture (OPP-resistant). Description: Biocidal activity in ground natural calcium carbonate slurry (GNCCS), Total Viable Count after inoculation with rOPP culture. In kind it is cell-based, Pseudomonas putida and Pseudomonas stutzeri. Conditions: one inoculation. The method, then: as §1
OPP, in the form of an aqueous solution having a concentration of 45%, and one of AMC, AMB, DAH, and DAO were introduced into 50 g samples of each of the slurries indicated in Table 6 in the listed amounts (quoted in ppm active content based on the weight of the aqueous phase in the slurry). References were prepared according to the same protocol but in absence of any one of AMC, AMB, DAH, and DAO. A reference was prepared according to the same protocol but in absence of AMC, AMB, DAH, and DAO and in absence of any biocide.
The slurry samples were then inoculated with 1 ml of a mixture of Pseudomonas species containing predominantly Pseudomonas putida and Pseudomonas stutzeri that are resistant to OPP. Each of the samples was incubated at 30° C. for 72 hours. Thereafter, a 1:10 dilution in phosphate buffered saline (PBS) was plated on plate count agar (PCA). These plates were incubated at 30° C. and analysed after […]. […]

Like-named read-outs stand apart in the source and are kept apart here.

For the molecule `NCc1cccc(CN)c1` [AMB, 1,3-bis(aminomethyl)benzene], the TVC in experiment [1] (diamine 750 ppm alone) is 1 × 10^6 cfu/ml.

With `NCC1CCCC(CN)C1` (stereo not shown) [AMC, 1,3-bis(aminomethyl)cyclohexane], the TVC in experiment [1] (diamine 750 ppm alone) was 1 × 10^6 cfu/ml.

As to `NCCCCCCCN` [DAH, 1,7-diaminoheptane], the TVC in experiment [1] (diamine 750 ppm alone) is reported as 1 × 10^6 cfu/ml.

On to `NCCCCCCCCN` [DAO, 1,8-diamionoocatane], for which the TVC is on record as 1 × 10^6 cfu/ml in experiment [2] (diamine 750 ppm alone, no OPP) and 1 × 10^6 cfu/ml in experiment [1] (diamine 750 ppm alone). Turning to `NCCN` [EDA, ethylene diamine], the TVC in experiment [1] (EDA 1050 ppm on aqueous phase alone) was 1 × 10^6 cfu/ml. For `Oc1ccccc1-c1ccccc1` [OPP, orthophenylphenol, reference compound], the TVC in experiment [2] (OPP 250 ppm alone) is recorded as 1 × 10^6 cfu/ml.
